Laboratory results as given in publication PMC7961048, “Hierarchized phosphotarget binding by the seven human 14-3-3 isoforms” (Nature Communications, 2021).
Starred links: 1 amine or outer side, 2 acyl side, 3 side chain; linkers in the order of their positions; H or OH if unused. Non-standard residues stand in square brackets, D forms with d. Residues, ends and D or L forms follow the SMILES beside them. *: point of attachment. X1 = O=C(CCCC[C@@H]1SC[C@@H]2NC(=O)N[C@@H]21)NCCCOCCOCCOCCCN*; pT = C[C@@H](OP(=O)(O)O)[C@H](N)C(=O)O; Suc = O=C(CCC(=O)[*:2])[*:1]

Tests used:
Type in all cases: binding
14-3-3η = target: T1, 14-3-3η (Homo sapiens, UniProt Q04917); experiment: biochemical
T1 construct: cDNAs encoding other full-length 14-3-3 isoforms β, τ, η, and σ were obtained as codon-optimized; made in house; host or cells: E. coli BL21(DE3)
T1 sequence (Q04917 1-246): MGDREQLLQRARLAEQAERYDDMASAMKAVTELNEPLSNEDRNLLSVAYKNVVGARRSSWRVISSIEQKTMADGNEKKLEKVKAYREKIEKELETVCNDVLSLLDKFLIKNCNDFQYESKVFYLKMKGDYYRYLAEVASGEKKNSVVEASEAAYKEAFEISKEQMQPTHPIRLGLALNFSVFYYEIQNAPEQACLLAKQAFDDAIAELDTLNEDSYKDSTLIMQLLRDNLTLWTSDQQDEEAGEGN

14-3-3ζ = target: T2, 14-3-3ζ (Homo sapiens, UniProt P63104); experiment: biochemical
T2 construct: Plasmids containing the cDNAs of the full-length 14-3-3 isoforms ε, γ, and ζ were received; made in house; host or cells: E. coli BL21(DE3)
T2 sequence (P63104 1-245): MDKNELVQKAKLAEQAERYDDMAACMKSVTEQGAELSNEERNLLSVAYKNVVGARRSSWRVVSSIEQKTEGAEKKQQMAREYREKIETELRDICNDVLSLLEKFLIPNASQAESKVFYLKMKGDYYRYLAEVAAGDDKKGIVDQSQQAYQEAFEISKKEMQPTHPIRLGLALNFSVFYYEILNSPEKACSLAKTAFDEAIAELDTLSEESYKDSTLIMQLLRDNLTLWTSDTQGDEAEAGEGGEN

[1] = target: seven human 14-3-3 isoforms; experiment: Affinities averaged or compared across the 14-3-3 family (ΔΔGav, KD ratios, affinity maps); conditions: for KD ratios, compared to LRRK2 pS910/pS935, 14-3-3β / KD ratios, compared to LRRK2 pS910/pS935, 14-3-3γ / KD ratios, compared to LRRK2 pS910/pS935, 14-3-3ε / KD ratios, compared to LRRK2 pS910/pS935, 14-3-3ζ / KD ratios, compared to LRRK2 pS910/pS935, 14-3-3η / KD ratios, compared to LRRK2 pS910/pS935, 14-3-3σ / KD ratios, compared to LRRK2 pS910/pS935, 14-3-3τ / KD ratios, compared to LRRK2 pS910/pS935, average: Figure 4 panel b; for KD ratios, compared to LRRK2 pS910/pS935, average: average over the isoforms; for KD ratios, compared to 14-3-3γ, 14-3-3β / KD ratios, compared to 14-3-3γ, 14-3-3γ / KD ratios, compared to 14-3-3γ, 14-3-3ε / KD ratios, compared to 14-3-3γ, 14-3-3ζ / KD ratios, compared to 14-3-3γ, 14-3-3η / KD ratios, compared to 14-3-3γ, 14-3-3σ / KD ratios, compared to 14-3-3γ, 14-3-3τ: Figure 4 panel c; for ΔΔGav (average 14-3-3 binding free energy difference) relative to p35E6: averaged over 14-3-3 isoforms, 295 K; for KD ratio relative to p35E6: corresponds to ΔΔGav averaged over 14-3-3 isoforms
From the text: Former studies have measured the binding of the seven human 14-3-3 isoforms to unrelated phospho-motifs derived from Cystic Fibrosis Transmembrane Conductance Regulator (CFTR), Leucine-Rich Repeat Kinase 2 (LRRK2), Potassium channel subfamily K members (TASK1/3), C-Raf, the p65 subunit of the NF-κB transcription factor, and from Ubiquitin carboxyl-terminal hydrolase 8 (USP8), representing a wide variety of different 14-3-3-binding motifs, including C-terminal, internal, monovalent, or divalent motifs[40],[44]–[48].
(gray background). The color scale is either based on affinity values or on KD ratios. √ denotes affinities weaker than the limit of quantitation of the experimental assays. b Same map as in a, normalized to the strongest 14-3-3-binding motif. […] Source data are provided as a Source Data file.
All binding data and the obtained fits are provided as Supplementary Data File 1.

| Structure (SMILES) | Kd (14-3-3η) | Kd (14-3-3ζ) | KD ratios, compared to LRRK2 pS910/pS935, 14-3-3β [1] | KD ratios, compared to LRRK2 pS910/pS935, 14-3-3γ [1] | KD ratios, compared to LRRK2 pS910/pS935, 14-3-3ε [1] | KD ratios, compared to LRRK2 pS910/pS935, 14-3-3ζ [1] | KD ratios, compared to LRRK2 pS910/pS935, 14-3-3η [1] | KD ratios, compared to LRRK2 pS910/pS935, 14-3-3σ [1] | KD ratios, compared to LRRK2 pS910/pS935, 14-3-3τ [1] | KD ratios, compared to LRRK2 pS910/pS935, average [1] | KD ratios, compared to 14-3-3γ, 14-3-3β [1] | KD ratios, compared to 14-3-3γ, 14-3-3γ [1] | KD ratios, compared to 14-3-3γ, 14-3-3ε [1] | KD ratios, compared to 14-3-3γ, 14-3-3ζ [1] | KD ratios, compared to 14-3-3γ, 14-3-3η [1] | KD ratios, compared to 14-3-3γ, 14-3-3σ [1] | KD ratios, compared to 14-3-3γ, 14-3-3τ [1] | ΔΔGav (average 14-3-3 binding free energy difference) relative to p35E6 [1] | KD ratio relative to p35E6 [1] | binding to 14-3-3 proteins ([1]; competitive FP, seven MBP-fused full-length 14-3-3 isoforms, result in words) |
| --- | --- | --- | --- | --- | --- | --- | --- | --- | --- | --- | --- | --- | --- | --- | --- | --- | --- | --- | --- | --- |
| CC(C)[C@H](NC(=O)[C@H](C)NC(=O)[C@@H](NC(=O)[C@H](CCC(=O)O)NC(=O)[C@H](CCCNC(=N)N)NC(=O)[C@H](CCCNC(=N)N)NC(=O)[C@@H](NC(=O)[C@@H]1CCCN1C(=O)[C@H](CCCCN)NC(=O)[C@H](CO)NC(=O)CCC(=O)NCCCOCCOCCOCCCNC(=O)CCCC[C@@H]1SC[C@@H]2NC(=O)N[C@@H]21)[C@@H](C)O)[C@@H](C)OP(=O)(O)O)C(=O)O [pHPV35E6E-1A] ({X1-Suc}-SKPTRRE[pT]AV-OH) | 12.4 µM | 17.6 µM | 957.35 | 2909.38 | 2572.58 | 3666.67 | 2583.33 | 727.72 | 2263.16 | 2200.00 | 2.17 | 1.00 | 3.43 | 1.89 | 1.33 | 4.74 | 2.31 | – | – | – |
| CC(C)[C@H](NC(=O)[C@H](CCC(=O)O)NC(=O)[C@@H](NC(=O)[C@H](CCC(=O)O)NC(=O)[C@H](CCCNC(=N)N)NC(=O)[C@H](CCCNC(=N)N)NC(=O)[C@H](CCCNC(=N)N)NC(=O)[C@@H]1CCCN1C(=O)[C@H](CCCCN)NC(=O)[C@H](CO)NC(=O)CCC(=O)NCCCOCCOCCOCCCNC(=O)CCCC[C@@H]1SC[C@@H]2NC(=O)N[C@@H]21)[C@@H](C)OP(=O)(O)O)C(=O)O [pHPV35E6T-6R] ({X1-Suc}-SKPRRRE[pT]EV-OH) | 85 ± 20.6 µM | 139 ± 21 µM | 8483 | 22250 | – | 28958 | 17708 | – | 20421 | 20000 | 2.51 | 1.00 | – | 1.95 | 1.19 | – | 2.72 | –1.1 ± 0.5 kJ/mol | 1.5 fold | – |
| CC(C)C[C@H](NC(=O)[C@H](C)NC(=O)[C@@H](NC(=O)[C@H](CCC(=O)O)NC(=O)[C@H](CCCNC(=N)N)NC(=O)[C@H](CCCNC(=N)N)NC(=O)[C@H](CCCNC(=N)N)NC(=O)[C@H](CO)NC(=O)[C@H](CCCNC(=N)N)NC(=O)[C@H](CO)NC(=O)CCC(=O)NCCCOCCOCCOCCCNC(=O)CCCC[C@@H]1SC[C@@H]2NC(=O)N[C@@H]21)[C@@H](C)OP(=O)(O)O)C(=O)O [pHPV33E6] ({X1-Suc}-SRSRRRE[pT]AL-OH) | 1.98 µM | – | 191.94 | 293.75 | 830.65 | 566.67 | 412.50 | 111.72 | 370.53 | 400.00 | 4.31 | 1.00 | 10.96 | 2.89 | 2.11 | 7.20 | 3.74 | –10.9 ± 0.7 kJ/mol | ~100 fold | detectably bound |
